What all share (experiment): NCI tumour cell line growth inhibition, 48 h
Test [1] concerns Hs-578T.
The subject of test [2] is SK-MEL-5.
Test [3] concerns CAKI-1.
Test [4] concerns NCI-H460.
Test [5] has as its system DU-145.
Test [6] relates to UACC-62.
Test [7] deals with OVCAR-4.
The subject of test [8] is NCI/ADR-RES.
In test [9] the test system is BT-549.
Test [10] concerns TK-10.
For test [11], the system named is HCT-15.
Test [12] concerns CCRF-CEM.
Test [13] concerns HCT-116.
Test [14] concerns OVCAR-3.
In test [15] the test system is HCC 2998.
For test [16], the system named is SR.
Test [17] deals with MDA-MB-231.
Test [18] deals with RPMI-8226.
Test [19] deals with MOLT-4.
In test [20] the test system is NCI-H522.

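In this assay, cells in 96-well plates receive the compound at five concentrations for 48 hours. Endpoints are linearly interpolated between the surrounding concentrations. GI50: concentration for 50% inhibition of growth.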 Calls of active or inactive are those of the source. No stated cut-off is given here; in the data, active = GI50 up to about 1.1 µM and inactive = higher.

`CCOC(=O)C1(Cc2c[nH]c3ccccc23)C(O)CCCN1C(C)=O` (stereo not drawn): the GI50 in test [1], in [2], in test [3], in [4], in test [5] and in test [6] was > 100 µM (inactive) each time. In addition, the GI50 in [7] was > 100 µM (inactive); in test [8], > 100 µM (inactive); in test [9] it was > 100 µM (inactive); in test [10], > 100 µM (inactive); in test [11], greater than 100 µM; in test [12], > 100 µM (inactive). Moreover, the GI50 is > 100 µM (inactive) in [13]; > 100 µM (inactive) in test [14]; > 100 µM (inactive) in test [15]; 81.5 µM (inactive) in [16]; > 100 µM (inactive) in test [17]; > 100 µM (inactive) in [18]. The GI50 in [19] was > 100 µM (inactive).

`Fc1cccc(C2SCC3=Nc4ccccc4CN32)c1` (stereo not drawn): the GI50 in test [1] was > 10 µM (inactive); in test [2] it was 17.9 µM (inactive); in test [3], > 100 µM (inactive); in [4], 37.9 µM (inactive); in [5], 52.4 µM (inactive); in test [6], 50.2 µM (inactive). For the same molecule, the GI50 in [7] was 95.7 µM (inactive); in test [8] it was 11 µM (inactive); in test [9] it was 92.5 µM (inactive); in test [10] it was 67.8 µM (inactive); in test [11], 58.9 µM; in test [12], 29.9 µM (inactive). For the same molecule, the GI50 is 27.8 µM (inactive) in test [13]; 20.2 µM (inactive) in [14]; 70.1 µM (inactive) in test [15]; 38.6 µM (inactive) in test [16]; > 100 µM (inactive) in test [17]; 36.8 µM (inactive) in [18]. Also, the GI50 in test [19] was 37.8 µM (inactive).

As to `O=C(O)C(/C=C/c1ccccc1)c1ccccc1` (stereo not drawn), the GI50 in test [1] is > 100 µM (inactive); in [2], > 100 µM (inactive); in test [4] it was > 100 µM (inactive); in test [20] it was 69.7 µM (inactive); in test [5], > 100 µM (inactive); in test [6], > 100 µM (inactive). In addition, the GI50 is > 100 µM (inactive) in test [8]; > 100 µM (inactive) in test [9]; > 100 µM (inactive) in [10]; greater than 100 µM in test [11]; 14.3 µM (inactive) in test [12]; > 100 µM (inactive) in test [13]. Further, the GI50 in test [14] was > 100 µM (inactive); in [16] it was 5.11 µM (inactive); in test [17] it was > 100 µM (inactive); in [18] it was > 100 µM (inactive); in [19] it was 6.59 µM (inactive).

For the molecule `COc1ccc(/C=N/NC(=O)O)cc1`, the GI50 in [1], in [2], in test [3], in [4], in test [20] and in test [5] was > 100 µM (inactive) in each case. The GI50 in test [6] is > 100 µM (inactive); in test [7], > 100 µM (inactive); in [8], > 100 µM (inactive); in test [9], > 100 µM (inactive); in test [10], > 100 µM (inactive); in test [11] it was greater than 100 µM. Besides, the GI50 in test [13] is > 100 µM (inactive); in [14], > 100 µM (inactive); in test [15] it was 88.5 µM (inactive); in test [16], > 100 µM (inactive); in [17], > 100 µM (inactive); in test [18] it was > 100 µM (inactive). Besides, in test [19], the GI50 was > 100 µM (inactive).

`C[N+]1([O-])[C@H]2CC(OC(=O)[C@H](CO)c3ccccc3)C[C@H]1[C@H]1O[C@H]12` (stereo partly drawn): the GI50 in [1], in test [2], in [3], in [20], in [5] and in test [6] was > 100 µM (inactive) throughout. Moreover, the GI50 in [7] was > 100 µM (inactive); in [8] it was > 100 µM (inactive); in [9] it was > 100 µM (inactive); in [10] it was > 100 µM (inactive); in test [11], greater than 100 µM; in test [12] it was 21.2 µM (inactive). In addition, the GI50 in [13], in test [14], in test [16], in test [17], in test [18] and in test [19] was > 100 µM (inactive) in each case.

With `Cc1ccc(OCC2=NN3C(=O)/C(=C\c4ccc([N+](=O)[O-])o4)SC3N2)cc1` (stereo not drawn), the GI50 in test [1] was 21.7 µM (inactive); in [2], 8.99 µM (inactive); in test [3], 14.6 µM (inactive); in test [4] it was 18.7 µM (inactive); in test [20], 1.82 µM (inactive); in [5] it was 5.68 µM (inactive). Besides, the GI50 in test [7] is 2.99 µM (inactive); in test [8] it was 9.04 µM (inactive); in test [9] it was 12.5 µM (inactive); in test [10] it was 16.5 µM (inactive); in test [11] it was 2.42 µM; in [12] it was 2.99 µM (inactive). Moreover, the GI50 was 3.63 µM (inactive) in test [13]; 1.95 µM (inactive) in [14]; 2.94 µM (inactive) in test [16]; 12.4 µM (inactive) in test [17]; 2.16 µM (inactive) in test [18]; 2.33 µM (inactive) in test [19].

`CCC1c2[nH]c3ccccc3c2C[C@H]2C(=O)NC(C)C(=O)N12` (stereo partly drawn): the GI50 in test [1], in test [2], in [3], in test [20], in test [5] and in test [6] was > 100 µM (inactive) each time. The GI50 in test [7] is > 100 µM (inactive); in test [8], > 100 µM (inactive); in [9], > 100 µM (inactive); in test [10], > 100 µM (inactive); in [11], greater than 100 µM; in test [13], > 100 µM (inactive). Further, the GI50 in [14], in test [15], in [16], in test [17], in [18] and in test [19] was > 100 µM (inactive) in each case.

With `CCCCP(CCCC)(CCCC)=C(C(=O)OC)C(C(=O)OC)=C1SC(C(=O)OC)=C(C(=O)OC)S1`, the GI50 is 18.5 µM (inactive) in [1]; 16.2 µM (inactive) in [2]; 16 µM (inactive) in test [4]; 17.7 µM (inactive) in test [20]; 40.8 µM (inactive) in [5]; 14.1 µM (inactive) in test [6]. Further, the GI50 is 16.2 µM (inactive) in test [7]; > 10 µM (inactive) in test [8]; 15.7 µM (inactive) in test [9]; 38.6 µM (inactive) in [10]; 30.5 µM in [11]; 12 µM (inactive) in test [13]. Besides, the GI50 in [14] is 19.3 µM (inactive); in test [16], 34.8 µM (inactive); in test [17], 17.9 µM (inactive); in test [18] it was 63.2 µM (inactive); in test [19] it was 11.9 µM (inactive).

In the case of `COC(=O)/C=C\n1ncc(=O)[nH]c1=O`, the GI50 was > 100 µM (inactive) in [1]; > 100 µM (inactive) in test [2]; > 100 µM (inactive) in [3]; > 100 µM (inactive) in test [4]; 52.1 µM (inactive) in [20]; > 100 µM (inactive) in test [5]. Further, the GI50 in test [7] was > 100 µM (inactive); in test [8], > 100 µM (inactive); in [9], > 100 µM (inactive); in [10], > 100 µM (inactive); in [11], greater than 100 µM; in test [14], > 100 µM (inactive). In addition, the GI50 in test [15] was > 100 µM (inactive); in test [16], > 10 µM (inactive); in [17] it was > 100 µM (inactive); in test [18] it was > 100 µM (inactive); in test [19], > 100 µM (inactive).

As for `CC#CC#C/C(=C/C=CC(=O)OC)SC`, the GI50 in [1], in test [2], in [3], in test [4], in [20] and in test [5] was > 100 µM (inactive) each time. Besides, the GI50 in test [6] is > 100 µM (inactive); in test [7] it was > 100 µM (inactive); in test [8], > 100 µM (inactive); in test [9], > 100 µM (inactive); in [10], > 100 µM (inactive); in test [11], greater than 100 µM. Also, the GI50 was > 10 µM (inactive) in [12]; > 100 µM (inactive) in test [13]; > 100 µM (inactive) in [15]; > 10 µM (inactive) in [16]; > 100 µM (inactive) in [17]; > 100 µM (inactive) in [19].

For `Cc1cc2cc3c(O)nc(O)nc3nc2cc1C`, the GI50 in test [1], in [2], in [3], in test [4], in test [20] and in [5] was > 100 µM (inactive) throughout. Further, the GI50 is > 100 µM (inactive) in test [6]; > 100 µM (inactive) in test [7]; > 100 µM (inactive) in test [8]; > 100 µM (inactive) in [9]; > 100 µM (inactive) in test [10]; greater than 100 µM in test [11]. Also, the GI50 in test [13], in test [14], in test [16], in test [17], in test [18] and in [19] was > 100 µM (inactive) each time.

Values taken from ChEMBL document CHEMBL1201862, “PubChem BioAssay data set” (2004).
